Patent US10662159B2, “ABHD6 and dual ABHD6/MGL inhibitors and their uses” (MAKScientific, LLC, priority 2017, dated 2020)

Assays:
Format in all cases: biochemical
hABHD6 = hABHD6 (Homo sapiens (Human), UniProt Q9BV23); test: Fluorescent assay for hABHD6 (AHMMCE substrate hydrolysis); settings: membrane fraction containing full-length hABHD6, 20 μM AHMMCE; read-out: ABHD6 Inhibition IC50
Experimental: (§1) Certain compounds were tested for their ABHD6 and dual ABHD6/MGL inhibitory activity, which is expressed as % of inhibition or IC50 values in Table 1. The percentage of inhibition describes the percentage by which the inhibitor reduces the velocity/rate of 2-AG hydrolysis by ABHD6, and MGL or AEA hydrolysis by FAAH. […] The lower the IC50 values, the higher its inhibitory activity. A detailed description of the methods used to test inhibitory activity of compounds is given below.
Fluorescent Assays Protocol for hABHD6
Initial Fluorescent Inhibition Assay (3-Point)—
In each well of a 96-well plate 8 μL of membrane fraction containing full-length hABHD6 (1 μg total protein) was mixed with 168 μL of assay buffer (50 mM Tris-HCl, pH 7.6), and 20 μL of diluted compound (diluted in a dilution buffer consisting of 50% DMSO/50% assay buffer v/v). Each plate was incubated at RT for 15 minutes before adding 4 μL of 1 mM AHMMCE substrate (final concentration of 20 μM AHMMCE and final volume of 200 μL). The reaction was allowed to proceed for 1 hr at RT before the fluorescence was read at λex 360 nm and λem 460 nm and the inhibition calculated. Each experiment can test 8 compounds at three concentrations (usually 10 μM, 1 μM, and 100 nM).
IC50 Determination Assay (8-Point)—
A more detailed assay with an extended range tests compounds over 8 concentrations depending on the pre-determined approximate IC50 value from the initial screen. […] The assay was conducted in 96 well plate with each well containing the same reaction mixture detailed above in the 3-point screen. The relative fluorescence is quantified into coumarin produced by using a standard curve of HMMC in triplicate on each plate. Results are normalized to the negative control wells and the IC50 is determined using a non-linear regression curve fit in Prism, version 5 (GraphPad, San Diego, Calif.).

hMGL = hMGL (Homo sapiens (Human), UniProt Q99685); test: Fluorescent assay for hMGL (AHMMCE substrate hydrolysis); settings: E. coli lysate containing hMGL, read-out: hMGL Inhibition IC50
Experimental: as §1
Preparation of Human MAGL (hMAGL)
Fluorescent Assay Protocol for hMGL
This medium throughput assay involved a 96-well plate format in which hMGL activity was monitored by the hydrolysis of the substrate […] (AHMMCE) to form the fluorescent product, coumarin. […] Upon the addition of AHMMCE, the reaction was incubated at 25° C. for 120 min; fluorescence readings were taken every 15 min at 360 nm/460 nm (λexcitation/λemission) using a Synergy HT Plate Reader (Bio-Tek, Winooski, Vt.). […] External standards were used to convert relative fluorescence units to the amount of 4-methylcoumarin formed. All MGL assays were performed in triplicate for each inhibitor concentration, and IC50 values were calculated using Prizm software (GraphPad Software, Inc., San Diego, Calif.).

Rat ΔTM FAAH = Rat ΔTM FAAH (Rattus norvegicus (Rat), UniProt P97612); test: Fluorescent assay for rat ΔTM FAAH (AAMCA substrate); settings: ΔTM rFAAH, AAMCA 20 μM; read-out: rFAAH Inhibition IC50
Experimental: (§2) Certain compounds were tested for their ABHD6 and dual ABHD6/MGL inhibitory activity, which is expressed as % of inhibition or IC50 values in Table 1. The percentage of inhibition describes the percentage by which the inhibitor reduces the velocity/rate of 2-AG hydrolysis by ABHD6, and MGL or AEA hydrolysis by FAAH. The IC50 is the concentration of the inhibitor, which results in 50% inhibition of the velocity/rate of 2-AG hydrolysis by ABHD6 or MGL. The IC50 is the concentration of the inhibitor, which results in 50% inhibition of the velocity/rate of AEA hydrolysis by FAAH. The lower the IC50 values, the higher its inhibitory activity. A detailed description of the methods used to test inhibitory activity of compounds is given below.
Example 79. Preparation of Transmembrane Domain-Deleted Rat FAAH (ΔTM rFAAH)
Rat ΔTM FAAH was expressed in E. coli cells and purified using the procedure disclosed by Patricelli et al. Biochemistry (1998) 37: 15177-15187.
Example 81. Fluorescent Assay Protocol for Rat ΔTM FAAH
(§3) The fluorescence reading at the 3 hour time point (linear enzyme kinetics) was used to calculate percent inhibition based on control assays without inhibitor present. All FAAH assays were performed in triplicate for each inhibitor concentration, and IC50 values determined using Prizm software (GraphPad Software, Inc.).

hFAAH = hFAAH (Homo sapiens (Human), UniProt O00519); test: Fluorescent assay for hFAAH; settings: MBP ΔTM hFAAH, procedure as for rFAAH; read-out: hFAAH Inhibition IC50
Experimental: as §2
Example 80. Preparation of Human FAAH in Fusion with N-Terminal Maltose Binding Tag (MBP ΔTM hFAAH)
Human FAAH without putative transmembrane domain following maltose binding protein was expressed in E. coli cells using pMALcE4 vector Alapafuja et al J. Med. Chem. (2012) 55: 10074-89.
as §3
Example 82. Fluorescent Assay Protocol for hFAAH
Procedure was followed as described for rFAAH.

Chain of hABHD6 (Q9BV23 whole entry): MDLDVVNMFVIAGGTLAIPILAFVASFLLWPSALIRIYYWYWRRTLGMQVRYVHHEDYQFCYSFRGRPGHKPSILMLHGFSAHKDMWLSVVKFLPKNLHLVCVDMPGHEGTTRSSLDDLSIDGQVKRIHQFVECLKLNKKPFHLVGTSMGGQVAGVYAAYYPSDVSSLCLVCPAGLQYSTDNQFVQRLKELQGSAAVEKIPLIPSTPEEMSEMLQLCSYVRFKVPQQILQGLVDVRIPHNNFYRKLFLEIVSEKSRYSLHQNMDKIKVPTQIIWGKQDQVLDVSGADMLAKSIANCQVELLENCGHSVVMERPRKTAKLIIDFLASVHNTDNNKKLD
Chain of hFAAH (O00519 30-579): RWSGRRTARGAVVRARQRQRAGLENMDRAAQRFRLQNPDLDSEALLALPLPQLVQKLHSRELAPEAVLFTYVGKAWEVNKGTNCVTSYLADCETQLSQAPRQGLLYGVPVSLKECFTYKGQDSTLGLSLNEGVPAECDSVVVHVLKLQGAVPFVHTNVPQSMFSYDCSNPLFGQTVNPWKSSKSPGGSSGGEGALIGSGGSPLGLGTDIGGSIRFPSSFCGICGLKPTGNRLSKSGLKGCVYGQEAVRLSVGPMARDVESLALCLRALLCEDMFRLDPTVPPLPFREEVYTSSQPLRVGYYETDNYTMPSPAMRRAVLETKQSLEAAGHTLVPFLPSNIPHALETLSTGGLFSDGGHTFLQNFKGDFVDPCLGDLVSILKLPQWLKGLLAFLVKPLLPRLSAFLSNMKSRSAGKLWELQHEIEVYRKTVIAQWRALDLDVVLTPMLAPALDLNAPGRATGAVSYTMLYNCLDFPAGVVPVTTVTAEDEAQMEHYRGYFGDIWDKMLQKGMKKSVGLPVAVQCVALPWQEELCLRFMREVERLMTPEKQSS
Chain of Rat ΔTM FAAH (P97612 30-579): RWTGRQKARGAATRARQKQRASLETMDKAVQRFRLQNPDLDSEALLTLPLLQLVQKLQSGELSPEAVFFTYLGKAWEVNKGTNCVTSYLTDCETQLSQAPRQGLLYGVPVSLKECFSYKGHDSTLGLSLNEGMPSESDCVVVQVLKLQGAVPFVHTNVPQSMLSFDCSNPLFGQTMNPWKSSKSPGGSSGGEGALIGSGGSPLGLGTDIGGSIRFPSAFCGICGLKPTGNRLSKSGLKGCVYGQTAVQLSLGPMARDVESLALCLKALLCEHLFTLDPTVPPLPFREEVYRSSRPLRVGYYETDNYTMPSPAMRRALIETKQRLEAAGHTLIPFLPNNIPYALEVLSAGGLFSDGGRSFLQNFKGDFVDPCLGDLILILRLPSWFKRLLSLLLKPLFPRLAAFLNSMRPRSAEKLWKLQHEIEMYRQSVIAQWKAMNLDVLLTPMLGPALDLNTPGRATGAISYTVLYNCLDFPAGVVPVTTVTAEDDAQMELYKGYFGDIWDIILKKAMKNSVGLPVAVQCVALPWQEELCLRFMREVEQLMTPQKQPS
Chain of hMGL (Q99685 whole entry): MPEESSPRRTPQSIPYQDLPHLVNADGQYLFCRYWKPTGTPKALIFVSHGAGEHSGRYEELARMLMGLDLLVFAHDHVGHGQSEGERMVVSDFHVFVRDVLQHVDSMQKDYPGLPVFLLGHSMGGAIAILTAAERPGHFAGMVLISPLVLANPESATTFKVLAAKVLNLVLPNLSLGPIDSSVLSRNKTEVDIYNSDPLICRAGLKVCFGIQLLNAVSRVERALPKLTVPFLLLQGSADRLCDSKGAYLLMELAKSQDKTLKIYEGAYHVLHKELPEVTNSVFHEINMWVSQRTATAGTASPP

Row | Structure (SMILES) | IC50 (hABHD6) | IC50 (hMGL) | IC50 (Rat ΔTM FAAH) | IC50 (hFAAH)
1 | O=C(OC(C(F)(F)F)C(F)(F)F)N1CCc2cccc(-c3ccccc3)c2C1 [Example 27, 1,1,1,3,3,3-Hexafluoropropan-2-yl 8-phenyl-3,4-dihydroisoquinoline-2(1H)-carboxylate] | > 1000 nM | > 1000 nM | > 1000 nM | > 1000 nM
2 | CC1(C)C2C(=O)N(OC(=O)N3CC4(CC(Oc5cccc(C(F)(F)F)c5)C4)C3)C(=O)C21 (stereo not drawn) [Example 63, 6,6-Dimethyl-2,4-dioxo-3-azabicyclo[3.1.0]hexan-3-yl 6-(3-(trifluoromethyl)phenoxy)-2-azaspiro[3.3]heptane-2-carboxylate] | 10 to 100 nM | > 1000 nM | > 1000 nM | > 1000 nM
3 | CC1(C)C2C(=O)N(OC(=O)N3CC4(CCC(Oc5cncc(F)c5)C4)C3)C(=O)C21 (stereo not drawn) [Example 64, 6,6-Dimethyl-2,4-dioxo-3-azabicyclo[3.1.0]hexan-3-yl 6-((5-fluoropyridin-3-yl)oxy)-2-azaspiro[3.4]octane-2-carboxylate] | 10 to 100 nM | > 1000 nM | > 1000 nM | > 1000 nM
4 | O=C(OC(C(F)(F)F)C(F)(F)F)N1CC[C@]2(C1)C[C@@H](OC(c1ccc(F)cc1)c1ccc(F)cc1)C2 [Example 67, 1,1,1,3,3,3-Hexafluoropropan-2-yl (2r,4s)-2-(bis(4-fluorophenyl)methoxy)-6-azaspiro[3.4]octane-6-carboxylate] | 10 to 100 nM | 10 to 100 nM | 10 to 100 nM | > 1000 nM
5 | O=C(OC(C(F)(F)F)C(F)(F)F)N1CC[C@]2(C1)C[C@H](OC(c1ccc(F)cc1)c1ccc(F)cc1)C2 [Example 68, 1,1,1,3,3,3-Hexafluoropropan-2-yl (2s,4r)-2-(bis(4-fluorophenyl)methoxy)-6-azaspiro[3.4]octane-6-carboxylate] | > 1000 nM | 10 to 100 nM | 10 to 100 nM | > 1000 nM

Further lines, results first:

Row | IC50 (hABHD6) | IC50 (hMGL) | IC50 (Rat ΔTM FAAH) | IC50 (hFAAH) | Structure (SMILES)
6 | 10 to 100 nM | 10 to 100 nM | > 1000 nM | > 1000 nM | O=C(OC(C(F)(F)F)C(F)(F)F)N1Cc2ccc(OCC(F)F)cc2C1 [Example 45, 1,1,1,3,3,3-Hexafluoropropan-2-yl 5-(2,2-difluoroethoxy)isoindoline-2-carboxylate]
7 | 10 to 100 nM | 10 to 100 nM | > 1000 nM | > 1000 nM | O=C(OC(C(F)(F)F)C(F)(F)F)N1CC2(CC(Oc3cccc(C(F)(F)F)c3)C2)C1 [Example 52, 1,1,1,3,3,3-Hexafluoropropan-2-yl 6-(3-(trifluoromethyl)phenoxy)-2-azaspiro [3.3]heptane-2-carboxylate]
8 | 10 to 100 nM | 10 to 100 nM | > 1000 nM | > 1000 nM | O=C(OC(C(F)(F)F)C(F)(F)F)N1CC2(CC(Oc3cccc(F)c3)C2)C1 [Example 53, 1,1,1,3,3,3-Hexafluoropropan-2-yl-6-(3-fluorophenoxy)-2-azaspiro[3.3]heptane-2-carboxylate]
9 | 10 to 100 nM | > 1000 nM | > 1000 nM | > 1000 nM | O=C(OC(C(F)(F)F)C(F)(F)F)N1CC2(CC(Oc3cncc(F)c3)C2)C1 [Example 60, 1,1,1,3,3,3-Hexafluoropropan-2-yl 6-((5-fluoropyridin-3-yl)oxy)-2-azaspiro[3.3]heptane-2-carboxylate]
